Assay results taken from patent US4791135A (priority 1987, dated 1988).

What was measured:
[1] = Stability of the free acid (PMR spectrum on standing); type: physicochemical; details: gradual changes in PMR spectrum on standing
Excerpt: Hydrolysis of the ester (compound 5a) with 2.5% KOH/MeOH gave the corresponding potassium salt which was purified by reverse phase chromatography. Conversion of the salt (compound 7a) to the free acid (compound 8a) was achieved by acidification with acetic acid. The free acid appears to be unstable, as evidenced by gradual changes seen in its PMR spectrum on standing. This may be due to the instability of the acetal or ketal functions of the molecule under acidic conditions. In contrast, compounds 7b through 7d were smoothly converted to their corresponding stable free acids (compounds 8b-d).

[2] = system: P. falciparum Sierra Leone (D-6) clone; assay: In vitro antimalarial susceptibility, 3H-hypoxanthine uptake, Sierra Leone (D-6) clone; type: cell-based, Plasmodium falciparum
Method: (§1) The former clone is a strain that is resistant to mefloquine and the latter, to chloroquine, pyrimethamine, sulfadoxine, and quinine.
(§2) In vitro assays were conducted using a modification of the semiautomated microdilution technique of Desjardins et al., Antimicrob. Agents Chemoether., 1979, Volume 16, page 710 and Milhous et al., Antimicrob. Agents Chemother., 1985, Volume 27, page 525. Two P. falciparum malaria parasite clones, designated as Indochina (W-2) and Sierra Leone (D-6), were utilized in susceptibility testing. They were derived by direct visualization and micromanipulation from patient isolates obtained by the Centers for Disease Control, Atlanta, GA in 1980 and 1982, respectively. The patients had acquired infections either in Vietnam or Sierra Leone. The Indochina clone is resistant to the antimalarials chloroquine, sulfadoxine, pyrimethamine, and quinine, whereas the Sierra Leone, is resistant to mefloquine but susceptible to chloroquine, quinine, sulfadoxine, and pyrimethamine. Test compounds were initially dissolved in DMSO and 70% ethanol and diluted in RPMI 1640 culture medium with 10% human plasma to 400 fold. Drugs were subsequently further diluted using the Cetus Pro/Pette (Perkin-Elmer Corp., Norwalk, CT) over a range of 1.56-100×10^-9 molar. Parasite inocula (at 0.5% parasitemia and a 1% hematocrit) were incubated for 24 hours and added to equimolar concentrations of each test compound prior to the addition of ^3 H-hypoxanthine. After a further incubation of 18 hours, particulate matter was harvested from each microtiter well using an automated cell harvester (Skatron, Inc., Sterling, VA). Uptake of ^3 H-hypoxanthine was measured using a scintillation spectrophotometer (Model LS3801, Beckman Instruments, Irvine, CA).

[3] = physchem; type: physicochemical
Method: To compare the relative stability of the new agents vs. artesunic acid, stability studies of compound 8d and compound 1 were conducted in 2.5% K2 CO3 /D2 O solution at room temperature and were monitored by PMR. [drawing 8]
To a 5 mm NMR tube containing 10 mg of sample was added 0.5 mL of 2.5% K2 CO3 /D2 O solution. The initial spectrum of the solution was taken within 5 minutes, and again at intervals thereafter. The extent of hydrolysis was estimated by the following equation:
% Decomposition=(B/2A+B)×100
where A=integration of H-10 (5.80 ppm, d, J=10.8 Hz, 1H) and H-12 (5.71 ppm, s, 1H) of artesunate; B=integration of the singlet at 2.42 ppm for the potassium succinate formed. With time, the intensity of potassium succinate (2.42 ppm) signal increases, while that of H-10 and H-12 of artesunate decreases. The stability study of compound 1 in 5% NaHCO3 /D2 O was also carried out by the same procedure.

[4] = Water solubility; type: physicochemical
[5] = system: Plasmodium falciparum D-6 (Sierra Leone clone) and W-2 (Indochina clone); assay: In vitro antimalarial activity against both clones, summarised in words; type: cell-based; details: in words; relative to artemisinin (3) or compounds 2 and 3
Method: as §1
as §2, with “CA). Concentration-response data were analyzed by nonlinear regression and the IC50 's (50% inhibitory concentrations) for each compound were calculated.” for “CA).”

[6] = system: P. falciparum Indochina (W-2) clone; assay: In vitro antimalarial susceptibility, 3H-hypoxanthine uptake, Indochina (W-2) clone; type: cell-based, Plasmodium falciparum; details: Plasmodium falciparum
Method: as §1, §2

SMILES | stability of free acid [1] | In vitro antimalarial activity IC50, Sierra Leone (D-6) [2] | stability in solution [3] | water solubility [4] | in vitro antimalarial activity relative to parent compounds [5] | IC50 [6]
CC1CCC2C(C)C(OCC(=O)O)OC3OC4(C)CCC1C32OO4 (stereo not drawn) [Compound 8a, 2-(10-Dihydroartemisininoxy)acetic acid] | unstable |  |  |  |  | 
CC1CCC2C(C)C(OCc3ccc(C(=O)O)cc3)OC3OC4(C)CCC1C32OO4 (stereo not drawn) [Compound 7d, Potassium p-(10-Dihydroartemisininoxy)methylbenzoate] |  | 1.74 ng/mL | stable in solution | water soluble | comparable in vitro activity to artemisinin | 0.92 ng/mL
